Experimental data from US20240209028A1, “CNP COMPOUNDS” (priority 2022, published 2024).
Where two headings read alike, the source gives them in different places. Starred links: 1 amine or outer side, 2 acyl side, 3 side chain; linkers in the order of their positions; H or OH if unused. Positions of bridges follow the written chain, without caps; N, C: chain ends. Residues, ends and D or L forms follow the SMILES beside them. *: point of attachment. C18 diacid = O=C(O)CCCCCCCCCCCCCCCCC(=O)*; γGlu = O=C(O)[C@H](CCC(=O)[*:2])N[*:1]; AEEA = NCCOCCOCC(=O)O

Legend:
[1] = CNP local tolerance study in LYD pigs (s.c. injection, histopathology); type: in vivo, domestic LYD pig
From the text: The purpose of this study was to evaluate the local tissue reaction response to subcutaneous injection of CNP compounds in pigs.
Procedure: In domestic pigs, the injection site was subjected to histopathologic examination after subcutaneous dosing. Injections were placed mid-back between the shoulder and hip on both sides of the dorsal midline, and one or two days before injection sites of 2×2 cm were shaved and marked by permanent ink under light anaesthesia. Each injection consisted of 100 or 200 μl formulation with a concentration of approx. 4400 μM. CNP compound formulations were prepared according to the principles in General Methods of Preparation—Method G, and were either A) 8 mM sodium phosphate, 250 mM glycerol, pH 6.5, B) 5 mM sodium acetate, 250 mM glycerol, pH 4.0 or C) 5 mM sodium acetate, 240 mM propylene glycol, pH 4.0 and physiological saline was included as negative control.
On Day 1 the pigs were lightly anaesthetised. An insulin pen (NovoPen 4) and insulin needle (NovoTwist 32G/5 mm) were used for accurate deposition of the CNP formulations in the subcutaneous fat tissue with the needle perpendicular to the skin. On Day 5 (4 days post injection) or 6 (5 days post injection), the pigs were euthanised, and the injection sites were removed and fixed in 4% phosphate buffered neutral formaldehyde in sealed plastic containers. The tissue blocks were prefixed for 2-4 hours in 10% buffered formalin, cut into 2 mm thick slabs with a multi knife, examined for macroscopic changes and finally fixed overnight in cassettes. Two slabs of tissue were selected for light microscopic evaluation where the tissue reaction was maximal or alternatively in the central part of the injection site. Three to four 2-4 μm sections were cut from three levels at 100 μm distance, stained with haematoxylin and eosin (H&E) and evaluated in a light microscope. Histopathological changes were graded on a 5-level scale ((Minimal (Min), Mild (Mil), Moderate (Mod), Marked (Mar) and Severe (Sev)). The studies are summarised in Table 18.
Results: The results are summarised in Table 19. * Necrosis was used as a marker for local subcutaneous reactions; **NAD: No Abnormalities Detected

[2] = PK after i.v. and s.c. administration to domestic LYD pig; details: female, in vivo, Domestic LYD pig; for clearance: read-out: CL (ml/hr/kg), Intravenous PK (converted)
Protocol: The purpose of this study was to investigate pharmacokinetic and pharmacodynamic properties after intravenous (i.v.) and subcutaneous (s.c.) administration to Gottingen Minipig and domestic LYD pig, and to estimate bioavailability after s.c. dosing. Quantitative plasma analysis of CNP and cGMP levels were performed as described in
Animals and dosing: The pharmacokinetic and pharmacodynamic studies in Gottingen Minipig or domestic LYD pig were conducted at CRO Minerva Imaging or Novo Nordisk A/S, respectively. CNP compounds were dosed to normal female 1) Gottingen minipigs 6-12 months of age with an average weight of 22 kg or 2) domestic LYD pigs 4-5 months of age with and average weight of 80 kg. At least one week prior to dosing, permanent central venous catheters were implanted for blood sampling and intravenous (i.v.) dosing. For subcutaneous (s.c.) dosing, the pigs were ultrasound scanned and the optimal injection area laterally on the neck marked by a permanent tattoo. An insulin pen (NovoPen Echo or NovoPen 4) and insulin needle (NovoFine 32G/4 mm or NovoTwist 32G/5 mm) were used for accurate deposition of the CNP formulations in the subcutaneous fat tissue with the needle perpendicular to the skin.
CNP compounds were formulated according to the principles in General Methods of Preparation—Method G and were either A) 8 mM sodium phosphate, 250 mM glycerol, pH 6.5, B) 5 mM sodium acetate, 250 mM glycerol, pH 4.0, C) 5 mM sodium acetate, 240 mM propylene glycol, pH=4.0, D) 8 mM sodium phosphate, 250 mM glycerol, pH 7.5 or E) 20 mM sodium phosphate, 223 mM propylene glycol, pH 6.0.
Intravenously, the CNP compounds were dosed at 30-60 nmol/kg to Minipig and 15-43 nmol/kg to domestic pig using formulations A-E. Subcutaneously, the CNP compounds were dosed at 55-62 nmol/kg to Minipig and 20-30 nmol/kg to domestic pig using formulations A-D.
Sampling: Blood samples of approximately 1 mL were collected pre dose and up to 14 days post dose into EDTA-coated tubes (8 mM) for cGMP and CNP compound analysis by LC-MS. In few instances, cGMP was only analysed up to 48 hours post dose after intravenous dosing in domestic LYD pig. The blood samples were kept on wet ice for maximum 30 minutes until centrifugation for 10 minutes at 4° C. and minimum 1500G, and the plasma samples were stored at −20° C. until analysis.
Plasma concentration-time profiles were analyzed by non-compartmental PK analysis using Phoenix WinNonlin 8.1, Pharsight Inc., Mountain View, CA, USA. Calculation of the area under the plasma concentration-time curve (AUC) was based on the “linear up log down” method, and uniform weighting was used for estimation of the terminal rate constant (λz). S.c. bioavailability (F) was calculated as the dose-normalized AUC (AUC/dose) after s.c. administration divided by the AUC/dose after i.v. administration. […]

[3] = molecular target: T1, human natriuretic peptide receptor 2 (hNPR2) (Homo sapiens, UniProt P20594); assay: In vitro hNPR2 activity assay (cGMP GloSensor reporter, HEK293); type: cell-based
T1 construct: expressed in transfected cells; host or cells: HEK293 (ATCC CRL-1573), clone 35, co-transfected with pGloSensor-42F
T1 sequence (P20594 23-1047): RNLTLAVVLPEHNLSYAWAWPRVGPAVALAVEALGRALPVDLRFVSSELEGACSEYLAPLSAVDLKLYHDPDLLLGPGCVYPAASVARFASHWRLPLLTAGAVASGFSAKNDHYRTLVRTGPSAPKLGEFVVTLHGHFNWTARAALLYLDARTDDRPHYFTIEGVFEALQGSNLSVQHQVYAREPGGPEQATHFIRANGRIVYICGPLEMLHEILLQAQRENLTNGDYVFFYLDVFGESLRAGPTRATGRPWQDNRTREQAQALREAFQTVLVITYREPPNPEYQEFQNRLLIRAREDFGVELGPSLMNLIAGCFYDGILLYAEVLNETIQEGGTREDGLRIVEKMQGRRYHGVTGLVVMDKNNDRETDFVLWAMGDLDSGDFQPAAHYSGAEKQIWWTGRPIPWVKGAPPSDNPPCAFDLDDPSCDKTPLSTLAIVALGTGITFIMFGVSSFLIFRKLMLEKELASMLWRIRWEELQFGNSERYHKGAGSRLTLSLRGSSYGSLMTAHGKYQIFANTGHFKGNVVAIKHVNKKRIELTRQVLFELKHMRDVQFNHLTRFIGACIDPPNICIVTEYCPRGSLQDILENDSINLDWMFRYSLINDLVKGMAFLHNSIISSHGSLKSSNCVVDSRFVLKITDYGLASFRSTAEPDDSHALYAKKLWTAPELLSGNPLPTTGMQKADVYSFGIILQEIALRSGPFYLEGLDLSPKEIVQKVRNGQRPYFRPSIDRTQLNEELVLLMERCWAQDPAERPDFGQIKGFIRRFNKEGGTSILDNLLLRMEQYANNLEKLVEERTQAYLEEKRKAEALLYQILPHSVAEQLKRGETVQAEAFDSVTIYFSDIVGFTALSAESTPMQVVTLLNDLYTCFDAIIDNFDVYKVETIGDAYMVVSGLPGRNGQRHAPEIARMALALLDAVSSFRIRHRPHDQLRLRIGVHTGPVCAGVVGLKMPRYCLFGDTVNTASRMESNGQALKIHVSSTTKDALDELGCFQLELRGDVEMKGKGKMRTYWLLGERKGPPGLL
Procedure, shortened: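 Potency is the EC50 from a four-parameter logistic fit, also expressed relative to the in-plate CNP22 control (×100), with at least two replicates. Compounds (ten concentrations, […], HSA-free diluent with 1% OVA, 0.01% Tween20) were incubated 30 min at 37 °C on HEK293 cells co-expressing hNPR2 and a GloSensor cGMP luciferase. Luminescence detected with Bright-Glo.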

[4] = iv, i.v., read-out: T½, iv (converted)

Structure (SMILES): CC[C@H](C)[C@@H]1NC(=O)[C@H](CCCNC(=N)N)NC(=O)[C@H](CC(=O)O)NC(=O)[C@H](CC(C)C)NC(=O)[C@H](CCCCN)NC(=O)[C@H](CC(C)C)NC(=O)CNC(=O)[C@H](Cc2ccccc2)NC(=O)[C@@H](NC(=O)CNC(=O)[C@H](CCCCN)NC(=O)[C@H](CO)NC(=O)[C@H](CC(C)C)NC(=O)CNC(=O)[C@H](CCCCN)NC(=O)[C@H](CCCCN)NC(=O)[C@H](CC(N)=O)NC(=O)[C@H](C)NC(=O)CNC(=O)[C@H](CCCCN)NC(=O)[C@H](Cc2ccc(O)cc2)NC(=O)[C@H](CCCCN)NC(=O)[C@H](CCCNC(=N)N)NC(=O)[C@H](C)NC(=O)[C@H](CC(N)=O)NC(=O)[C@@H]2CCCN2C(=O)[C@H](Cc2c[nH]cn2)NC(=O)[C@H](CCC(=O)O)NC(=O)[C@H](CCC(N)=O)NC(=O)CNC(=O)[C@@H]2CCCN2)CSSC[C@@H](C(=O)O)NC(=O)CNC(=O)[C@H](CC(C)C)NC(=O)CNC(=O)[C@H](CO)NC(=O)[C@H](CCSC)NC(=O)[C@H](CO)NC(=O)CNC1=O [Compound 0106]
- Number of injections by severity of necrosis: NAD ([1]; LYD pig, s.c., approx. 4400 μM, 4 or 5 days after injection): 4

Structure (SMILES): CC[C@H](C)[C@@H]1NC(=O)[C@H](CCCNC(=N)N)NC(=O)[C@H](CC(=O)O)NC(=O)[C@H](CC(C)C)NC(=O)[C@@H]2CCCN2C(=O)[C@H](CC(C)C)NC(=O)CNC(=O)[C@H](Cc2ccccc2)NC(=O)[C@@H](NC(=O)CNC(=O)[C@H](CCCCN)NC(=O)[C@H](CO)NC(=O)[C@H](CC(C)C)NC(=O)CNC(=O)[C@H](CCCCN)NC(=O)[C@H](CCCCN)NC(=O)[C@H](CCC(N)=O)NC(=O)[C@H](C)NC(=O)CNC(=O)[C@H](CCC(=O)O)NC(=O)[C@H](Cc2ccc(O)cc2)NC(=O)COCCOCCNC(=O)COCCOCCNC(=O)CC[C@H](NC(=O)CCCCCCCCCCCCCCCCC(=O)O)C(=O)O)CSSC[C@@H](C(=O)O)NC(=O)CNC(=O)[C@H](CC(C)C)NC(=O)CNC(=O)[C@H](CO)NC(=O)[C@H](CC(C)C)NC(=O)[C@H](CO)NC(=O)CNC1=O [Compound 1225] ({C18 diacid-γGlu-AEEA-AEEA}-YEGAQKKGLSKGCFGLPLDRIGSLSGLGC-OH; disulfide 13-29)
- clearance ([2]; iv, i.v.): 3.23 mL/h/kg
- half-life [2, 4]: 15 h

Structure (SMILES): CC[C@H](C)[C@@H]1NC(=O)[C@H](CCCNC(=N)N)NC(=O)[C@H](CC(=O)O)NC(=O)[C@H](CC(C)C)NC(=O)[C@@H]2CCCN2C(=O)[C@H](CC(C)C)NC(=O)CNC(=O)[C@H](Cc2ccccc2)NC(=O)[C@@H](NC(=O)CNC(=O)[C@H](CO)NC(=O)[C@H](CO)NC(=O)[C@H](CC(C)C)NC(=O)CNC(=O)[C@H](CCCCN)NC(=O)[C@H](CCCCN)NC(=O)[C@H](CCC(N)=O)NC(=O)[C@H](C)NC(=O)CNC(=O)[C@H](CCC(=O)O)NC(=O)[C@H](Cc2ccc(O)cc2)NC(=O)COCCOCCNC(=O)COCCOCCNC(=O)CC[C@H](NC(=O)CCCCCCCCCCCCCCCCC(=O)O)C(=O)O)CSSC[C@@H](C(=O)O)NC(=O)CNC(=O)[C@H](CC(C)C)NC(=O)CNC(=O)[C@H](CO)NC(=O)[C@H](CC(C)C)NC(=O)[C@H](CO)NC(=O)CNC1=O [Compound 1227] ({C18 diacid-γGlu-AEEA-AEEA}-YEGAQKKGLSSGCFGLPLDRIGSLSGLGC-OH; disulfide 13-29)
- clearance ([2]; iv, i.v.): 5.54 mL/h/kg
- half-life [2, 4]: 11 h
- bioavailability ([2]; sc, s.c. bioavailability, read-out: F (%), Subcutaneous PK): 55%
- half-life ([2]; sc, s.c., read-out: T½, sc (converted)): 9 h

Structure (SMILES): CC[C@H](C)[C@@H]1NC(=O)[C@H](CCCNC(=N)N)NC(=O)[C@H](CC(=O)O)NC(=O)[C@H](CC(C)C)NC(=O)[C@H](CCCCN)NC(=O)[C@H](CC(C)C)NC(=O)CNC(=O)[C@H](Cc2ccccc2)NC(=O)[C@@H](NC(=O)CNC(=O)[C@H](CCCCN)NC(=O)[C@H](CO)NC(=O)[C@H](CC(C)C)NC(=O)CNC(=O)[C@H](CCCCN)NC(=O)[C@H](CCCCN)NC(=O)[C@H](CC(N)=O)NC(=O)[C@H](C)NC(=O)CNC(=O)[C@H](CCCCN)NC(=O)[C@H](Cc2ccc(O)cc2)NC(=O)[C@H](CCCCN)NC(=O)[C@H](CCCNC(=N)N)NC(=O)[C@H](C)NC(=O)[C@H](CC(N)=O)NC(=O)[C@@H]2CCCN2C(=O)[C@H](Cc2c[nH]cn2)NC(=O)[C@H](CCC(=O)O)NC(=O)[C@H](CCC(N)=O)NC(=O)CNC(=O)[C@@H]2CCCN2)CSSC[C@@H](C(=O)O)NC(=O)CNC(=O)[C@H](CC(C)C)NC(=O)CNC(=O)[C@H](CO)NC(=O)[C@H](CCSC)NC(=O)[C@H](CO)NC(=O)CNC1=O [compound 0106]
- EC50 ([3]; 0% HSA, HEK293-hNPR2/GloSensor cells): 0.18 nM
- hNPR2 0% HSA. [EC50% rel CNP] ([3]; potency relative to CNP22 (0065)): 201.1%
- injection site reactions ([1]; subcutaneous injections in the pig): no observable injection site reactions
